Test results taken from ChEMBL document CHEMBL5726270, “1-pyrazolyl-3-(4-((2-anilinopyrimidin-4-yl)oxy)napththalen-1-yl) ureas as P38 MAP knase inhibitors” (2017).

Biological target: T1, Mitogen-activated protein kinase 12 (Homo sapiens, UniProt P53778)
T1 sequence (P53778 whole entry): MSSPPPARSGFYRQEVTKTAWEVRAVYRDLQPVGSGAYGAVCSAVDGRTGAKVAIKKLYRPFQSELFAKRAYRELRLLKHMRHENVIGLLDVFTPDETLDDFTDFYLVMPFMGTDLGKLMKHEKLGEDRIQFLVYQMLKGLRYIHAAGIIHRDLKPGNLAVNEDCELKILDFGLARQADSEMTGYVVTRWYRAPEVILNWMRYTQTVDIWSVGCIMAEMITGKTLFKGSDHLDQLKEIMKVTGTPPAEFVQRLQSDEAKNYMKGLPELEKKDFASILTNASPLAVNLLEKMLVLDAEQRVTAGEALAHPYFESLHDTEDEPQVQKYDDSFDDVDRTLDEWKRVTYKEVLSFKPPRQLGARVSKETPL
Experiment: p38 MAPKγ Enzyme Inhibition: The inhibitory activities of compounds of the invention against p38MAPKγ (MAPK12: Invitrogen), were evaluated in a similar fashion to that described hereinabove. The enzyme (800 ng/mL, 2.5 μL) was incubated with the test compound (2.5 μL at either 4 μg/mL, 0.4 μg/mL, 0.04 μg/mL, or 0.004 μg/mL) for 2 hr at RT. The FRET peptides (8 μM, 2.5 μL), and appropriate ATP solution (2.5 μL, 400 μM) was then added to the enzymes/compound mixtures and incubated for 1 hr. Development reagent (protease, 5 μL) was added for 1 hr prior to detection in a fluorescence microplate reader (Varioskan® Flash, Thermo Scientific).

Cc1ccc(-n2nc(C(C)(C)C)cc2NC(=O)Nc2ccc(Oc3ccnc(Nc4ccccc4Cl)n3)c3ccccc23)cc1
IC50: > 15.1 µM
